{
  "source": "patent US20060204502A1",
  "about": "(priority 2004, published 2006)",
  "key": {"[1]": {"tested_on": "Human Melanoma A375", "experiment": "MTT growth inhibitory assay, A375", "settings": "A375 cells", "quoted_text": "An exemplary assay may comprise the following steps: Cells (1000-1500 cells/well) are seeded in a 96-well micro culture plate in a total volume of 100 μl/well. After overnight incubation in a humidified incubator at 37° C. with 5% CO2-95% air, chemotherapeutic drug solutions diluted with culture medium at various concentrations are added in the amount of 100 μl to each well. The plates are placed in a humidified incubator at 37° C. with 5% CO2-95% air for 7-10 days. The plates are then centrifuged briefly and 100 μl of the growth medium is removed. Cell cultures are incubated with 50 μl of MTT [3-(4,5-dimethylthiazol-2-yl)-2,5-diphenyl-tetrazolium bromide] reagent (1 mg/ml in Dulbecco's phosphate-buffered saline) for 4 hr at 37° C. The resultant purple formazan precipitate is solubilized with 200 μl of 0.04 N HCl in isopropanol. Absorbance is measured at a wavelength of 595 nm and at a reference wavelength of 655 nm using a Bio-Rad Model 3550 Microplate Reader. Preferably, all tests are run in duplicate for each dose level. […] The EZED50 computer program estimates the concentration of agent that inhibits cell growth by 50% as compared to the control cells. This is termed the IC50 and is determined by curve fitting test data using the following four logistic equation. [formula]\nIf testing concentrations are properly selected (i.e., no or little growth inhibition at low concentrations and complete inhibition at high concentrations), EZED50 program fits the data extremely well and estimates the IC50 value accurately. […] In these instances, the data could be re-analyzed by fixing the Amax value.\nIn this case, the IC50 could be estimated more accurately if both the Amax and Amin values are fixed. Although it may be feasible to estimate IC50 value by fixing Amax and/or Amax and Amin without repeating the experiment, the best way to determine the IC50 accurately is to decrease or increase the concentrations of the test agent and repeat the test.\nInhibitory assay testing is also used to determine enhanced therapeutic effects from combining A3 receptor antagonists with other tumor inhibiting agents. The inhibitory cell growth assays are run with and without selected concentrations of A3 receptor antagonists. An enhanced therapeutic effect is present when the IC50 of the tumor inhibiting agent is lower with the A3 receptor antagonist.\nQuantitatively, the enhancement factor (EF) is calculated by dividing the IC50 value of the tumor inhibiting agent for a tumor cell line by the IC50 value of the agent with A3 receptor antagonist for the same cell line: [formula]\nThe cells are cultured in a T25 Falcon Tissue Culture flask in a humidified incubator at 37° C. with 5% CO2-95% air. The cells are sub-cultured twice a week."}, "[2]": {"tested_on": "Human Colon Carcinoma HT29", "experiment": "MTT growth inhibitory assay, HT29", "format": "cell-based", "settings": "HT29 cells, A3 antagonist at 1 μg/ml", "procedure": "Interpretation of the EF is dependent upon the concentrations of A3 receptor antagonist tested. For example, when using very low concentrations of A3 receptor antagonist, any EF above 1.0 is synergistic if the A3 receptor antagonist concentration is below the threshold of cell growth inhibition.\nThe cells are sub-cultured twice a week.\nVinblastine sulfate salt was obtained from Sigma Chemical Co., (V1377). Irinotecan was diluted with culture medium. All other agents were dissolved in 100% DMSO at appropriate concentrations. The DMSO stock solutions were diluted 100-fold with growth medium so that the final DMSO concentration was 1%."}, "[3]": {"tested_on": "A375 cells", "experiment": "Colony formation assay of A375 cells", "format": "cell-based, human", "settings": "10 μM combined with paclitaxel (0.75 μg/ml), 7 days", "procedure": "FIG. 2 illustrates colony formation assay of A375 cells. Cells were treated with different drugs and colonies were counted after 7 days. The values represent the mean±SEM of four independent experiments. […] Analysis was by ANOVA followed by Dunnett's test.\nControl plates received the same volume of DMSO alone. After 7 days of growth at 37° C. in humidified atmosphere containing 5% CO2, the cells were fixed with absolute methanol for 5′ and stained with 1/10 Giemsa/phosphate-buffered saline (PBS) staining solution for 10 minutes. Staining solution was removed and colonies of greater than 30 cells were scored as survivors. For each treatment, six individual wells were scored."}},
  "note": "Several values for one entry are separate records, joined by “and”; a condition that tells them apart may be missing. Identical values can stand only once.",
  "data": [
    {"smiles": "CCCn1cc2c(nc(NC(=O)Nc3ccc(OC)cc3)n3nc(-c4ccco4)nc23)n1", "note": "[MRE3008F20, 5-[[(4-Methoxyphenyl)amino]carbonyl]amino-8-propyl-2-(2-furyl)-pyrazolo[4,3-e]1,2,4-triazolo[1,5-c]pyrimidine]", "values": [
      {"measurement": "Enhancement Factor", "setting": "[1]; enhancement of docetaxel IC50, A3 antagonist at 3 μg/ml", "value": 6.9},
      {"measurement": "Enhancement Factor", "setting": "[1]; enhancement of docetaxel IC50, A3 antagonist at 10 μg/ml", "value": 5.3},
      {"measurement": "Enhancement Factor", "setting": "[1]; enhancement of paclitaxel IC50, A3 antagonist at 1 μg/ml", "value": 7.1},
      {"measurement": "Enhancement Factor", "setting": "[1]; enhancement of paclitaxel IC50, A3 antagonist at 3 μg/ml", "value": 6.4},
      {"measurement": "Enhancement Factor", "setting": "[1]; enhancement of paclitaxel IC50, A3 antagonist at 10 μg/ml", "value": "7.1 and 8.5"},
      {"measurement": "Enhancement Factor", "setting": "[1]; enhancement of paclitaxel, at all three concentrations (1, 3, and 10 μg/ml)", "value": "6.4-7.1"},
      {"measurement": "Enhancement Factor", "setting": "[2]; enhancement of docetaxel IC50", "value": 15.0},
      {"measurement": "Enhancement Factor", "setting": "[2]; enhancement of doxorubicin IC50", "value": 1.6},
      {"measurement": "Enhancement Factor", "setting": "[2]; enhancement of irinotecan IC50", "value": 1.8},
      {"measurement": "Enhancement Factor", "setting": "[2]; enhancement of paclitaxel IC50", "value": 2.9},
      {"measurement": "colony formation, % of DMSO control", "setting": "[3]", "value": 0.2, "unit": "%"}
    ]}
  ]
}
